Source: article PMC7068720, “Rational Design of Mechanism-Based Inhibitors and Activity-Based Probes for the Identification of Retaining α-L-Arabinofuranosidases” (Journal of the American Chemical Society, 2020)
Where two headings read alike, the source gives them in different places. One block for each molecule: values may come before it.

Columns and labels:
[1] = target: T1, GsGH51 (Geobacillus stearothermophilus abfA) (Geobacillus stearothermophilus, UniProt Q9XBQ3); test: X-ray crystallography ([…] Å) and intact MS; assay type: binding; conditions: covalent; nucleophile E294
T1 construct: E. coli BL21(DE3) Gold, pET28a(+), N-terminal TEV-cleavable 6xHis tag removed

AbfE (GH51) = target: T2, AbfE (GH51) (Aspergillus niger, UniProt A2QT56); test: competition with ABP […] pull-down, LC-MS/MS; assay type: biochemical; conditions: covalent; 0.1 mM inhibitor 1 h, pH 6.5, 37 °C, then ABP 5
T2 construct: gene An09g00880; native secreted protein in arabinan-grown secretome
T2 sequence (A2QT56 32-646): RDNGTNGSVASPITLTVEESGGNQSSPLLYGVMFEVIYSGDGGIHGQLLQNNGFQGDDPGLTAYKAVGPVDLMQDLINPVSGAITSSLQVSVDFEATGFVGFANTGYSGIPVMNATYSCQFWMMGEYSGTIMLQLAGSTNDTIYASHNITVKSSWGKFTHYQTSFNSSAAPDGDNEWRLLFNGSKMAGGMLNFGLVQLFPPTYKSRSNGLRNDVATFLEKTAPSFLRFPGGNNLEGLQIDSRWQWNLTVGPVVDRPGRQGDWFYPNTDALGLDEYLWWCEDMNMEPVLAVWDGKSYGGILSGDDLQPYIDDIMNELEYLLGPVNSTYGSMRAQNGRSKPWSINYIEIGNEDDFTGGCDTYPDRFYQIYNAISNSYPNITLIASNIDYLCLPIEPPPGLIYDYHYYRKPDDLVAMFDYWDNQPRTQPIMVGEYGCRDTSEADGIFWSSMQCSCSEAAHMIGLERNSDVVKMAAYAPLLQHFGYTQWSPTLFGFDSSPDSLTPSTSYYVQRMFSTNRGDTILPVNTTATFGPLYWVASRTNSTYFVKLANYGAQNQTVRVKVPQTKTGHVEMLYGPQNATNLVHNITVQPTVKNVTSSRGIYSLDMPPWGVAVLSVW

AnAbfA (GH51) = target: T3, AnAbfA (GH51) (Aspergillus niger, UniProt A2Q7E0); test: continuous fluorescence assay, irreversible inhibition kinetics; assay type: biochemical
T3 construct: gene abfA; synthetic gene in pPICZalpha (vector fragment amplified from untagged AkAbfB plasmid), secreted from Pichia pastoris X-33
T3 sequence (A2Q7E0 26-628): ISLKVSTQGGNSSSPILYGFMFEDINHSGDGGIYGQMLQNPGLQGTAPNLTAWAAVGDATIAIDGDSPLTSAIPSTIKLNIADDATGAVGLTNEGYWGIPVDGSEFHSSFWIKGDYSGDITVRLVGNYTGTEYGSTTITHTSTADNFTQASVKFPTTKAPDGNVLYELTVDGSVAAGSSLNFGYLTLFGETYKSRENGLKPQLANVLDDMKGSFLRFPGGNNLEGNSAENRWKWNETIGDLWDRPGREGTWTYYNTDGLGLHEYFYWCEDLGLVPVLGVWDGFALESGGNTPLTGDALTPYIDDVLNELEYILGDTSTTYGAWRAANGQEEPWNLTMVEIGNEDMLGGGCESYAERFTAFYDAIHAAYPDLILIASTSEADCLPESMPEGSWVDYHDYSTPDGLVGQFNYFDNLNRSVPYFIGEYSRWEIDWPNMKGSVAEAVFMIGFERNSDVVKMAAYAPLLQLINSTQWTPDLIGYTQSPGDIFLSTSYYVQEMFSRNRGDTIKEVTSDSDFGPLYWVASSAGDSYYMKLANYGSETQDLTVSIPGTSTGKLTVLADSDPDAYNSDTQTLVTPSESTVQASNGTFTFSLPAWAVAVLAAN
Description: continuous fluorescence assay, irreversible inhibition kinetics on AnAbfA (GH51)

AkAbfB (GH54) = target: T4, AkAbfB (GH54) (Aspergillus luchuensis, UniProt Q8NK89); test: as above; assay type: biochemical
T4 construct: gene abfB; pPICZalpha, no purification tag, secreted from Pichia pastoris X-33; EndoH-deglycosylated for MS and crystallography
T4 sequence (Q8NK89 18-499): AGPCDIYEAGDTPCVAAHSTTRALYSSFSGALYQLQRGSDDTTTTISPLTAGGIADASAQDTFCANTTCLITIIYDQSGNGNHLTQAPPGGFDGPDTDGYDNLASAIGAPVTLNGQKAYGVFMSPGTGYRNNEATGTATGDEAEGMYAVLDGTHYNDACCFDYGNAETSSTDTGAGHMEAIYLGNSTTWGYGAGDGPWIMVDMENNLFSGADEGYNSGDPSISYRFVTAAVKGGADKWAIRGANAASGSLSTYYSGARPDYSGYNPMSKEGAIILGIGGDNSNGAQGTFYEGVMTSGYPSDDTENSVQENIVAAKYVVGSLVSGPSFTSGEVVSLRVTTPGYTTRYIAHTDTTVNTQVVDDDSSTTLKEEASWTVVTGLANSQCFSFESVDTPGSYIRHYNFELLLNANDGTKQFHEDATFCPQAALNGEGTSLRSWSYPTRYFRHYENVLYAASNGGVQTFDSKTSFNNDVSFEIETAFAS
Description: continuous fluorescence assay, irreversible inhibition kinetics on AkAbfB (GH54)

AnAbfB (AbfB, GH54) = target: T5, AnAbfB (AbfB, GH54) (Aspergillus niger, UniProt A2R511); test: competition with ABP […] pull-down, LC-MS/MS; assay type: biochemical; conditions: covalent; 0.1 mM inhibitor 1 h, pH 6.5, 37 °C, then ABP 5
T5 construct: native secreted glycoprotein in arabinan-grown secretome, ~65 kDa on gel (~60 kDa after PNGaseF)
T5 sequence (A2R511 19-499): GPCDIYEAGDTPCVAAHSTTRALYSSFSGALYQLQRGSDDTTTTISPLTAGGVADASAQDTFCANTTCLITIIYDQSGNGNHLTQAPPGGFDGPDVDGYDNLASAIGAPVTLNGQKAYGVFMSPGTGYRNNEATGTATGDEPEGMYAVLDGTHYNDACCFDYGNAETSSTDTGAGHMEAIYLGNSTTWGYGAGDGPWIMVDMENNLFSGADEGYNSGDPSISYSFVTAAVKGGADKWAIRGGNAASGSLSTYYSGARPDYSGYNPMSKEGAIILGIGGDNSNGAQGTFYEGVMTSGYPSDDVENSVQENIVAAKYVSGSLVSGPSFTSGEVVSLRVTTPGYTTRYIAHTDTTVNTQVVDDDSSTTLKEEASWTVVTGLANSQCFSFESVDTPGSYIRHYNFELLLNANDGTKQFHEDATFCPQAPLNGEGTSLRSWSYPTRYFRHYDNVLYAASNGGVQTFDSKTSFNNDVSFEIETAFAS

[2] = substrate: Cc1cc(=O)oc2cc(O[C@@H]3O[C@@H](CO)[C@H](O)[C@H]3O)ccc12; test: continuous fluorescence assay, Michaelis-Menten; assay type: biochemical, Aspergillus luchuensis; conditions: 4-500 μM substrate, 50 mM sodium phosphate pH 7.0, 25 °C
[3] = substrate: Cc1cc(=O)oc2cc(O[C@@H]3O[C@@H](CO)[C@H](O)[C@H]3O)ccc12; test: continuous fluorescence assay, Michaelis-Menten; assay type: biochemical, Aspergillus niger; conditions: 4-500 μM substrate, 50 mM sodium phosphate pH 7.0, 25 °C
[4] = covalent; mechanism-based; 4MU-Araf 100 μM, 50 mM sodium phosphate pH 7.0, 25 °C; read-out: KI
[5] = 4MU-Araf 100 μM, 50 mM sodium phosphate pH 7.0, 25 °C; up to 0.25 mM inhibitor
[6] = read-out: KI; covalent; mechanism-based; 4MU-Araf 100 μM, 50 mM sodium phosphate pH 7.0, 25 °C
[7] = covalent; mechanism-based; 4MU-Araf 100 μM, 50 mM sodium phosphate pH 7.0, 25 °C

T1 sequence (Q9XBQ3 whole entry): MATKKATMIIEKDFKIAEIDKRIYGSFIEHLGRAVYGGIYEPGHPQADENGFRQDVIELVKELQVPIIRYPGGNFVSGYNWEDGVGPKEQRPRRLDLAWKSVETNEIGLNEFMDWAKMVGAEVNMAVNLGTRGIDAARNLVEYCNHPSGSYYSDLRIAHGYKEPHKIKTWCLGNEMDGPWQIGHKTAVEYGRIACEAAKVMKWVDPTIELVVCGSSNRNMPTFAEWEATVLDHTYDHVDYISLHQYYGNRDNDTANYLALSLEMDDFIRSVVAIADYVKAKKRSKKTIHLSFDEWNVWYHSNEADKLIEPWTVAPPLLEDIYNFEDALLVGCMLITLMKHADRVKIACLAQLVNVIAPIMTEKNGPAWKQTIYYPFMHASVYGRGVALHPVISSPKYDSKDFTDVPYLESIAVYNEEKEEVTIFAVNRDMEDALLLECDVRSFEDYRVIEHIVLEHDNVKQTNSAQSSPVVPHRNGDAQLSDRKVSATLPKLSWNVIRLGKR

Molecule: OC[C@H]1[C@H](O)[C@@H](O)[C@@H]2N[C@H]12 [compound 2, inhibitor 2]
X-ray crystallography (1.40 Å) and intact MS [1]: full occupancy covalent complex between E294, the known catalytic nucleophile, and each inhibitor | competition with ABP 5 pull-down, LC-MS/MS (AbfE (GH51)): significantly reduced signal for peptides from AbfA, AbfB, and AbfE | KI (inactivation) (AnAbfA (GH51); [4]): 140 ± 20 µM | KI (inactivation) (AkAbfB (GH54); [4]): 320 ± 50 µM | competition with ABP 5 pull-down, LC-MS/MS (AnAbfB (AbfB, GH54)): significantly reduced signal for peptides from AbfA, AbfB, and AbfE

kinact/KI (AnAbfA (GH51); [5]): < 0.1 M⁻¹ s⁻¹ | kinact/KI (AkAbfB (GH54); [5]): < 0.1 M⁻¹ s⁻¹
Molecule: OC[C@H]1[C@H](O)[C@@H](O)[C@@H]2O[C@H]12 [compound 1]

Molecule: NCCCCCCCCN1[C@@H]2[C@@H](CO)[C@H](O)[C@@H](O)[C@@H]21 (stereo partly shown) [compound 3, inhibitor 3]
KI (inactivation) (AnAbfA (GH51); [6]): 210 ± 30 µM | KI (inactivation) (AkAbfB (GH54); [6]): 320 ± 40 µM

kinact/KI (AnAbfA (GH51); [7]): 160 ± 20 M⁻¹ s⁻¹ | kinact/KI (AkAbfB (GH54); [7]): 240 ± 30 M⁻¹ s⁻¹
Molecule: O=S1(=O)O[C@@H]2[C@@H](CO)[C@H](O)[C@@H](O)[C@@H]2O1 [compound 6, inhibitor 6]
X-ray crystallography (1.40 Å) and intact MS [1]: full occupancy covalent complex between E294, the known catalytic nucleophile, and each inhibitor

B1: AkAbfB (GH54) (Aspergillus luchuensis IFO 4308) (protein)
chain: AGPCDIYEAGDTPCVAAHSTTRALYSSFSGALYQLQRGSDDTTTTISPLTAGGIADASAQDTFCANTTCLITIIYDQSGNGNHLTQAPPGGFDGPDTDGYDNLASAIGAPVTLNGQKAYGVFMSPGTGYRNNEATGTATGDEAEGMYAVLDGTHYNDACCFDYGNAETSSTDTGAGHMEAIYLGNSTTWGYGAGDGPWIMVDMENNLFSGADEGYNSGDPSISYRFVTAAVKGGADKWAIRGANAASGSLSTYYSGARPDYSGYNPMSKEGAIILGIGGDNSNGAQGTFYEGVMTSGYPSDDTENSVQENIVAAKYVVGSLVSGPSFTSGEVVSLRVTTPGYTTRYIAHTDTTVNTQVVDDDSSTTLKEEASWTVVTGLANSQCFSFESVDTPGSYIRHYNFELLLNANDGTKQFHEDATFCPQAALNGEGTSLRSWSYPTRYFRHYENVLYAASNGGVQTFDSKTSFNNDVSFEIETAFAS
notes: pPICZalpha, no purification tag, secreted from Pichia pastoris X-33; EndoH-deglycosylated for MS and crystallography
Km [2]: 390 ± 30 µM | kcat [2]: 3.5 ± 0.167 s⁻¹

B2: AnAbfA (GH51) (Aspergillus niger CBS 513.88) (protein)
chain: ISLKVSTQGGNSSSPILYGFMFEDINHSGDGGIYGQMLQNPGLQGTAPNLTAWAAVGDATIAIDGDSPLTSAIPSTIKLNIADDATGAVGLTNEGYWGIPVDGSEFHSSFWIKGDYSGDITVRLVGNYTGTEYGSTTITHTSTADNFTQASVKFPTTKAPDGNVLYELTVDGSVAAGSSLNFGYLTLFGETYKSRENGLKPQLANVLDDMKGSFLRFPGGNNLEGNSAENRWKWNETIGDLWDRPGREGTWTYYNTDGLGLHEYFYWCEDLGLVPVLGVWDGFALESGGNTPLTGDALTPYIDDVLNELEYILGDTSTTYGAWRAANGQEEPWNLTMVEIGNEDMLGGGCESYAERFTAFYDAIHAAYPDLILIASTSEADCLPESMPEGSWVDYHDYSTPDGLVGQFNYFDNLNRSVPYFIGEYSRWEIDWPNMKGSVAEAVFMIGFERNSDVVKMAAYAPLLQLINSTQWTPDLIGYTQSPGDIFLSTSYYVQEMFSRNRGDTIKEVTSDSDFGPLYWVASSAGDSYYMKLANYGSETQDLTVSIPGTSTGKLTVLADSDPDAYNSDTQTLVTPSESTVQASNGTFTFSLPAWAVAVLAAN
notes: synthetic gene in pPICZalpha (vector fragment amplified from untagged AkAbfB plasmid), secreted from Pichia pastoris X-33
Km [3]: 240 ± 20 µM | kcat [3]: 2.17 ± 0.167 s⁻¹
